In patent US7968601B2, “Adamantyl acetamides as 11-β hydroxysteroid dehydrogenase inhibitors” (Janssen Pharmaceutica N.V., priority 2002, dated 2011):
pIC50: −log10 of the molar value.

What was measured:
11b-HSD1 [1] = biological target: 11b-HSD1 (Homo sapiens, UniProt P28845); assay: Enzymatic assay, 11b-HSD1 reductase activity (conversion of cortisone into cortisol); assay type: biochemical; details: pIC50 scored 1-3, read-out: [C1] HSD1-prot Reduct Score
Description: The effects of compounds on 11b-HSD1 dependent conversion of cortisone into cortisol (reductase activity) was studied in a reaction mixture containing 30 mM Tris-HCl buffer pH 7.2, 180 μM NADPH, 1 mM EDTA, 2 μM cortisone, 1 μl drug and/or solvent and 11 μg recombinant protein in a final volume of 100 μl.
(§1) All incubations were performed for 45 min at 37 C in a water bath. The reaction was stopped by adding 100 μl acetonitrile containing 20 μg corticosterone as internal standard. After centrifugation, the product formation was analysed in the supernatant by HPLC on a Hypersyl BDS-C18 column using 0.05 mM ammonium acetate/methanol (50/50) as solvent. In all of the aforementioned assays, the drugs to be tested were taken from a stock solution and tested at a final concentration ranging from […] to 3.10^−9M. From the thus obtained dose response curves, the pIC50 value was calculated and scored as follows; Score 1=pIC50 value<5, Score 2=pIC50 value in the range of 5 to 6, Score 3=pIC50 value>6. (in this table NT stands for Not Tested).

11b-HSD2 [2] = biological target: T1, 11b-HSD2 (Homo sapiens, UniProt P80365); assay: Enzymatic assay, 11b-HSD2 dependent dehydrogenase activity; assay type: biochemical; details: 11b-HSD2 dehydrogenase activity, pIC50 scored 1-3, read-out: [C1] HSD2 prot Dehydro Score
T1 sequence (P80365 1-405): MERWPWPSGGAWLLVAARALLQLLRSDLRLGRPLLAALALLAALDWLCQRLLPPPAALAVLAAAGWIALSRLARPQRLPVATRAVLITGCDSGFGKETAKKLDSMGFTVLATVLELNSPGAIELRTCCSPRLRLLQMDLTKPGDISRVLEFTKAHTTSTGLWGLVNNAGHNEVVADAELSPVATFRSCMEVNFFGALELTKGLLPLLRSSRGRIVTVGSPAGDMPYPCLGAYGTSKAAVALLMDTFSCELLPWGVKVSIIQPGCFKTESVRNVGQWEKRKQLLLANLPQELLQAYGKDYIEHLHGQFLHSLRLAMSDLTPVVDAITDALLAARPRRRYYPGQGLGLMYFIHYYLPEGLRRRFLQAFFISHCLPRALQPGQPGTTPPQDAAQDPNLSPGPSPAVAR
Description: The effects on the 11b-HSD2 dependent dehydrogenase activity was studied in a reaction mixture containing 0.1M sodium phosphate buffer pH 7.5, 300 μM NAD, 100 nM cortisol (of which 2 nM is 3H-radio labelled), 1 μl drug and/or solvent and 2.5 μg recombinant protein in a final volume of 100 μl.
as §1

11b-HSD1 [3] = biological target: T2, 11b-HSD1 (Mus musculus, UniProt P50172); assay: Cellular assay, 11b-HSD1 activity in differentiated 3T3-L1 cells; assay type: cell-based; details: 4 hour pre-incubation, pIC50 scored 1-3, read-out: [C2] HSD1 cellular 3T3-L1 Score
T2 construct: endogenous in cells; host or cells: 3T3-L1 (ATCC-CL-173), differentiated into adipocytes
Description: The effects on 11b-HSD1 activity was measured in differentiated 3T3-L1 cells and rat hepatocytes.
Mouse fibroblast 3T3-L1 cells (ATCC-CL-173) were seeded at a density of 16500 cells/ml in 12 well plates and grown for 7 days in DMEM medium (supplemented with 10% heat inactivated foetal calf serum, 2 mM glutamine and 25 mg gentamycin) at 37 C in a humidified 5% CO2 atmosphere. Medium was refreshed twice a week. Fibroblasts were differentiated into adipocytes at 37 C in a 5% CO2 humidified atmosphere in growth medium containing 2 μg/ml insulin, 55 μg/ml IBMX and 39.2 μg/ml dexamethasone.
Following a 4 hour pre-incubation with test compound, 0.5 μCi ^3H-cortisone or dehydrocorticosterone, was added to the cultures. One hour later, the medium was extracted on Extrelut^3-columns with 15 ml diethyl ether and the extract was analysed by HPLC as described above.
(§2) As for the enzymatic assays, the compounds to be tested were taken from a stock solution and tested at a final concentration ranging from […] to 3.10^−9M. From the thus obtained dose response curves, the pIC50 value was calculated and scored as follows; Score 1=pIC50 value<5, Score 2=pIC50 value in the range of 5 to 6, Score 3=pIC50 value>6. (in this table NT stands for Not Tested).

11b-HSD2 [4] = biological target: T1, 11b-HSD2; assay: Cellular assay, 11b-HSD2 activity in HepG2 cells; assay type: cell-based; design: endogenous in cells; host or cells: HepG2 (ATCC HB-8065); details: 4 hour pre-incubation, pIC50 scored 1-3, read-out: [C2] HSD2 cellular HepG2 Score
Description: The effects on 11b-HSD2 activity was studied in HepG2 and LCC-PK1-cells HepG2-cells (ATCC HB-8065) were seeded in 12 well plates at a density of 100,000 cells/ml and grown at 37 C in a humidified 5% CO2 atmosphere in MEM-Rega-3 medium supplemented with 10% heat inactivated foetal calf serum, 2 mM L-glutamine and sodium bicarbonate). Medium was refreshed twice a week. Pig kidney cells (LCC-PK1, ATCC CRL-1392) were seeded at a density of 150,000 cells/ml in 12 well plates and grown at 37 C in a humidified 5% CO2 atmosphere in Medium 199 supplemented with Earls modified salt solution, 100 U/ml penicillin, 100 μg/ml streptomycin and 10% foetal calf serum. Medium was refreshed twice a week. Twenty four hours prior to the onset of the experiment, medium was changed by medium containing 10% charcoal stripped foetal calf serum.
Following a 4 hour pre-incubation with test compound, 0.5 μCi ^3H-cortisol or corticosterone, was added to the cultures. One hour later, the medium was extracted on Extrelut^3-columns with 15 ml diethyl ether and the extract was analysed by HPLC as described above.
as §2

T2 sequence (P50172 whole entry): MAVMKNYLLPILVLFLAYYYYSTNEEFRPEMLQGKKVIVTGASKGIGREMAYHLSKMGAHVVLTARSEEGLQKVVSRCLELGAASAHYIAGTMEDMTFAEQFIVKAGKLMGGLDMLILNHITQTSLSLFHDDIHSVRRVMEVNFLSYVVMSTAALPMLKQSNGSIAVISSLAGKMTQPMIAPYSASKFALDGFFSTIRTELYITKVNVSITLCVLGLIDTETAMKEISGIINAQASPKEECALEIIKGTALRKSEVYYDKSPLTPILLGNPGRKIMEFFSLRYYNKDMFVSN
Chain of 11b-HSD1 (Homo sapiens, UniProt P28845) (P28845 whole entry): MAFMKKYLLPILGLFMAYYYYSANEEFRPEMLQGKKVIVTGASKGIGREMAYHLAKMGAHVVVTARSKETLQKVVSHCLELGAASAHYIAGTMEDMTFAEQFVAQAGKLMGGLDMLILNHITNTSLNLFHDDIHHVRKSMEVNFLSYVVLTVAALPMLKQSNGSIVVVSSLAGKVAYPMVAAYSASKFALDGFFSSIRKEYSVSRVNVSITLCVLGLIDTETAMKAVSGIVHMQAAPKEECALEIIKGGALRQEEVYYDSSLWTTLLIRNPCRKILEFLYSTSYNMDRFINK

pIC50 (11b-HSD1 [1]) | pIC50 (11b-HSD2 [2]) | pIC50 (11b-HSD1 [3]) | pIC50 (11b-HSD2 [4]) | SMILES
< 5.00 | 5.00 to 6.00 | > 6.00 | < 5.00 | CNc1cccc(C(C)(C)C(=O)NC2C3CC4CC(C3)CC2C4)c1 (stereo not shown) [Compound 77]
> 6.00 | 5.00 to 6.00 | > 6.00 | < 5.00 | CN(C)c1cccc(C(C)(C)C(=O)NC2C3CC4CC(C3)CC2C4)c1 (stereo not shown) [Compound 78]
< 5.00 | < 5.00 | > 6.00 | < 5.00 | CC(C)(C(=O)NC1C2CC3CC(C2)CC1C3)c1cccc(F)c1 (stereo not shown) [Compound 84]
< 5.00 | < 5.00 | > 6.00 | < 5.00 | CC(C)(C(=O)NC1C2CC3CC(C2)CC1C3)c1cccc(C(F)(F)F)c1 (stereo not shown) [Compound 85]
< 5.00 | < 5.00 | > 6.00 | < 5.00 | COc1ccc(C(C)(C)C(=O)NC2C3CC4CC(C3)CC2C4)cc1OC (stereo not shown) [Compound 86]
< 5.00 | < 5.00 | > 6.00 | < 5.00 | CC(C)(C(=O)NC1C2CC3CC(C2)CC1C3)c1ccc(F)cc1F (stereo not shown) [Compound 87]
< 5.00 | < 5.00 | > 6.00 | < 5.00 | CC(C)(C(=O)NC1C2CC3CC(C2)CC1C3)c1cc(F)ccc1F (stereo not shown) [Compound 88]
> 6.00 | < 5.00 | > 6.00 | < 5.00 | Cc1cccc(C(C)(C)C(=O)NC2C3CC4CC(C3)CC2C4)c1 (stereo not shown) [Compound 89]
< 5.00 | < 5.00 | > 6.00 | < 5.00 | CC(C)(C(=O)NC1C2CC3CC(C2)CC1(O)C3)c1ccccc1 (stereo not shown) [Compound 91]
> 6.00 | < 5.00 | > 6.00 | < 5.00 | CN(C)CCCOc1cccc(C(C)(C)C(=O)NC2C3CC4CC(C3)CC2C4)c1 (stereo not shown) [Compound 92]
> 6.00 | < 5.00 | > 6.00 | < 5.00 | O=C(NC1C2CC3CC(C2)CC1C3)C1(c2cccnc2)CCCC1 (stereo not shown) [Compound 126]
< 5.00 | < 5.00 | > 6.00 | < 5.00 | O=C(NC1C2CC3CC(C2)CC1C3)C1(c2ccncc2)CCCC1 (stereo not shown) [Compound 127]
> 6.00 | < 5.00 | > 6.00 | < 5.00 | CC(C)(C(=O)NC1C2CC3CC(C2)CC1C3)c1cccnc1 (stereo not shown) [Compound 128]
< 5.00 | < 5.00 | > 6.00 | < 5.00 | CC(C)(C(=O)NC1C2CC3CC(C2)CC1C3)c1ccsc1 (stereo not shown) [Compound 133]
> 6.00 | < 5.00 | > 6.00 | < 5.00 | CC(C)(C(=O)NC1C2CC3CC(C2)CC1C3)c1cccc2ccccc12 (stereo not shown) [Compound 137]
< 5.00 | < 5.00 | > 6.00 | < 5.00 | CC(C)(C(=O)NC1C2CC3CC(C2)CC1C3)c1ccc2ccccc2c1 (stereo not shown) [Compound 138]
5.00 to 6.00 | < 5.00 | > 6.00 | < 5.00 | CC(=Cc1ccccc1)C(=O)NC1C2CC3CC(C2)CC1C3 (stereo not shown) [Compound 151]

pIC50 (11b-HSD1 [1]) | pIC50 (11b-HSD2 [2]) | pIC50 (11b-HSD1 [3]) | pIC50 (11b-HSD2 [4]) | SMILES
5.00 to 6.00 | < 5.00 | > 6.00 | < 5.00 | CC(=CC(=O)NC1C2CC3CC(C2)CC1C3)c1ccccc1 (stereo not shown) [Compound 153]
< 5.00 | < 5.00 | > 6.00 | < 5.00 | CC(C)(C(=O)N[C@H]1[C@@H]2CC3C[C@H]1C[C@](O)(C3)C2)c1cccc(OCCN2CCOCC2)c1 [Compound 158]
> 6.00 | < 5.00 | > 6.00 | < 5.00 | O=C(NC1C2CC3CC(C2)CC1C3)C1=CCOc2ccccc21 (stereo not shown) [Compound 162]
> 6.00 | < 5.00 | > 6.00 | < 5.00 | CCCc1cccc(C(C)(C)C(=O)NC2C3CC4CC(C3)CC2C4)c1 (stereo not shown) [Compound 166]
> 6.00 | < 5.00 | > 6.00 | < 5.00 | O=C(NC1C2CC3CC(C2)CC1C3)C1CCOc2ccccc21 (stereo not shown) [Compound 167]
> 6.00 | < 5.00 | > 6.00 | < 5.00 | O=C(NC1C2CC3CC(C2)CC1C3)C1=CCCCc2ccccc21 (stereo not shown) [Compound 168]
> 6.00 | < 5.00 | > 6.00 | < 5.00 | O=C(NC1C2CC3CC(C2)CC1C3)C1CCCCc2ccccc21 (stereo not shown) [Compound 169]
> 6.00 | < 5.00 | > 6.00 | < 5.00 | COc1cccc2c1OCC=C2C(=O)NC1C2CC3CC(C2)CC1C3 (stereo not shown) [Compound 171]
> 6.00 | < 5.00 | > 6.00 | < 5.00 | O=C(NC1C2CC3CC(C2)CC1C3)C1Cc2ccccc21 (stereo not shown) [Compound 177]
< 5.00 | < 5.00 | > 6.00 | < 5.00 | Cc1cc(C)c2c(c1)C(C(=O)NC1C3CC4CC(C3)CC1C4)=CCC2 (stereo not shown) [Compound 181]
> 6.00 | < 5.00 | > 6.00 | < 5.00 | O=C(NC1C2CC3CC(C2)CC1C3)C1CCSc2ccccc21 (stereo not shown) [Compound 182]
> 6.00 | < 5.00 | > 6.00 | < 5.00 | CC(C)(C(=O)NC1C2CC3CC(C2)CC1C3)c1cccc(CCN2CCOCC2)c1 (stereo not shown) [Compound 191]
> 6.00 | < 5.00 | > 6.00 | < 5.00 | CCOC(=O)CCc1cccc(C(C)(C)C(=O)NC2C3CC4CC(C3)CC2C4)c1 (stereo not shown) [Compound 193]
> 6.00 | < 5.00 | > 6.00 | < 5.00 | CC(C)(C(=O)NC1C2CC3CC(C2)CC1C3)c1cccc(CCC(=O)O)c1 (stereo not shown) [Compound 196]
< 5.00 | < 5.00 | > 6.00 | < 5.00 | O=C(NC1C2CC3CC(C2)CC1C3)C1CCc2ccccc21 (stereo not shown) [Compound 197]
< 5.00 | < 5.00 | > 6.00 | < 5.00 | CC(C)(C(=O)NC1C2CC3CC(C2)CC1C3)c1cccc(/C=C/C(=O)OCc2ccccc2)c1 (stereo not shown) [Compound 198]

SMILES | pIC50 (11b-HSD1 [1]) | pIC50 (11b-HSD2 [2]) | pIC50 (11b-HSD1 [3]) | pIC50 (11b-HSD2 [4])
CC1=C(C(=O)NC2C3CC4CC(C3)CC2C4)Cc2ccccc21 (stereo not shown) [Compound 141] | > 6.00 | < 5.00 | > 6.00 | < 5.00
